Measurements published in patent US12441775B2, “BCL-W polypeptides and mimetics for treating or preventing chemotherapy-induced peripheral neuropathy and hearing loss” (Dana-Farber Cancer Institute, Inc., priority 2016, dated 2025).

Legend:
bclw+/+ and bclw−/− mice = test: Noxious thermal sensation threshold, 50° C. hot-plate; format: in vivo, mouse; conditions: paclitaxel 4 mg/kg every other day for 8 days
Experimental: Paclitaxel treatment and behavioral testing. 2 month old age-matched bclw−/− and bclw+/+ mice (17-30 g) of either sex were injected intraperitoneally (IP) with 4 mg/kg paclitaxel (Bristol-Myers Squibb) every other day for 8 days (4 total injections). Paclitaxel was prepared as 1 part 6 mg/ml paclitaxel stock solution diluted in vehicle (1:1 v/v Cremophor EL [EMD Millipore] and dehydrated ethanol) and 2 parts sterile saline and injected at 10 μl/g. Control mice were injected with 1 part vehicle and 2 parts saline. […] For three days prior to the baseline testing, mice were weighed, trained on an automated RotaRod apparatus (4 rpm for 1 min without falling), and habituated in von Frey cages. The next two days, baseline behavioral performance was assessed and averaged. The first paclitaxel injection was given three days later, and mice were weighed and behaviorally tested 10 days after the final injection. To assay motor function, mice were placed on the RotaRod with a ramp of 4-40 rpm and 0.4 rpm/sec acceleration, and latency to fall was measured. […] Withdrawal threshold was determined to be the applied force at which the animal withdrew the stimulated paw on at least 2 of 10 applications. […] Mouse behavior was assessed by an experimenter blind to genotype and condition.

Bcl2 = test: qRT-PCR and Western blot of cell body and axon lysate after paclitaxel; format: cell-based, rat; conditions: 24 hours paclitaxel to axons; axons or cell bodies
Experimental: (§1) Cell culture. Compartmented chamber (Campenot) cultures were prepared as described (see, e.g., Fenstermacher et al., Springer Protocols: Neuromethods, 103:105-124 (2015)), with modifications. Briefly, DRGs from embryonic day 15 (E15) rats of either sex were dissected and trypsinized. DRGs (1.2×10^5 cells) were plated in the center compartment of a Teflon divider (Camp10, Tyler Research; Campenot, 1982) affixed to a p35 culture dish coated with growth factor reduced Matrigel basement membrane (BD Biosciences) 1:45 in DMEM. Cultures were maintained in media consisting of Neurobasal (Invitrogen) with 2% B27 supplement (Invitrogen), 1% penicillin-streptomycin, 1% GlutaMAX (Life Technologies), 0.08% glucose, and 0.3 μM cytosine arabinoside (AraC) at 37° C., 7.5% CO2; BDNF+NGF (PeproTech) were added to the cell body compartment at a concentration of 10 ng/ml and to the axon compartment at a concentration of 100 ng/ml for 2d. On day 3, media was replaced and the AraC was omitted. On day 5, neurotrophins were removed from the cell body compartment and reduced to 1 ng/ml in the axon compartments for 3-5 days. For paclitaxel treatment experiments, 30 μM paclitaxel (Sigma-Aldrich) or vehicle control (0.1% DMSO) was added to either cell body or distal axon compartments on day 7 for 24 hours. For calpain inhibition experiments, 20 μM calpain inhibitor III (VWR) and paclitaxel were added simultaneously to distal axon compartment.
(§2) Western blotting. […] Using NIH ImageJ software, protein levels were quantified and levels of protein were normalized to GAPDH.
(§3) Quantitative reverse transcription-PCR. […] Quantitative real-time RT-PCR was performed using Taqman Gene expression assays (Applied Biosystems) to assess the expression of bclw (Rn00821025_g1), bcl2 (Rn99999125_m1), and bclxL (Rn00580568_g1). […]

BclxL = test: as above; format: cell-based, rat; conditions: 24 hours paclitaxel to axons; axons or cell bodies
Experimental: as §1, §2, §3

- thermal pain sensitivity (hot-plate) (bclw+/+ and bclw−/− mice; bclw+/+ mice): mild thermal hyperalgesia
- thermal pain sensitivity (hot-plate) (bclw+/+ and bclw−/− mice; bclw−/− mice): more severe thermal pain sensitivity
Compound: CC(=O)O[C@H]1C(=O)[C@@]2(C)[C@H]([C@H](OC(=O)c3ccccc3)[C@]3(O)C[C@H](OC(=O)[C@H](O)[C@@H](NC(=O)c4ccccc4)c4ccccc4)C(C)=C1C3(C)C)[C@]1(OC(C)=O)CO[C@@H]1C[C@@H]2O [paclitaxel]
- Bcl2 mRNA or protein (Bcl2): did not alter
- BclxL mRNA or protein (BclxL): did not alter
